Reference: ChEMBL document CHEMBL5120849, “Identification of novel and potent PROTACs targeting FAK for non-small cell lung cancer: Design, synthesis, and biological study” (Eur J Med Chem, 2022)
Each block holds one compound with its values, some of them ahead of it.

Tests used:
[1] = test system: A549; assay: cells; settings: Homo sapiens, A549, 72 h
[2] = test system: A549; assay: Antiinvasive activity in human A549 cells assessed as inhibition of cell invasion by measuring reduction in cell count incubated for 72 hrs by crystal violet staining based transwell assay; type: functional; settings: dose 0.2-1.8 µM, DDE = dose-dependent effect
[3] = test system: A549; assay: Inhibition of cell migration in human A549 cells assessed as wound recovery at 0.2 uM measured after 72 hrs by inverted microscopic analysis (reference value: 53.4 %); type: functional; design: scale not given: the % may be the effect or the level left
[4] = Apparent permeability across basolateral to apical side in human Caco-2 cells at 2 uM incubated for 2 hrs by LC-MS/MS analysis; type: ADME, cell-based
[5] = test system: A549; assay: Inhibition of cell migration in human A549 cells assessed as wound recovery at 0.6 uM measured after 24 hrs by inverted microscopic analysis (reference value: 28.2 %); type: functional; design: scale not given: the % may be the effect or the level left
[6] = test system: A549; assay: Inhibition of cell migration in human A549 cells assessed as wound recovery at 1.8 uM measured after 24 hrs by inverted microscopic analysis (reference value: 28.2 %); type: functional; design: scale not given: the % may be the effect or the level left
[7] = test system: A549; assay: Inhibition of cell migration in human A549 cells assessed as wound recovery at 0.6 uM measured after 72 hrs by inverted microscopic analysis (reference value: 53.4 %); type: functional; design: scale not given: the % may be the effect or the level left
[8] = Stability in pooled human plasma assessed as parent compound remaining at 2 uM measured after 30 mins by LC-MS/MS analysis (reference value: 100%); type: ADME, cell-free; settings: read-out: Stability
[9] = Stability in pooled human plasma assessed as half life at 2 uM measured upto 120 mins by LC-MS/MS analysis; type: ADME, cell-free
[10] = Stability in pooled human plasma assessed as parent compound remaining at 2 uM measured after 60 mins by LC-MS/MS analysis (reference value: 100%); type: ADME, cell-free; settings: read-out: Stability
[11] = test system: A549; assay: Inhibition of cell migration in human A549 cells assessed as wound recovery at 1.8 uM measured after 72 hrs by inverted microscopic analysis (reference value: 53.4 %); type: functional; design: scale not given: the % may be the effect or the level left
[12] = Apparent permeability across apical to basolateral side in human Caco-2 cells at 2 uM incubated for 2 hrs by LC-MS/MS analysis; type: ADME, cell-based
[13] = Stability in pooled human plasma assessed as parent compound remaining at 2 uM measured after 10 mins by LC-MS/MS analysis (reference value: 100%); type: ADME, cell-free; settings: read-out: Stability
[14] = Stability in pooled human plasma assessed as parent compound remaining at 2 uM measured after 120 mins by LC-MS/MS analysis (reference value: 100%); type: ADME, cell-free; settings: read-out: Stability
[15] = test system: A549; assay: Inhibition of cell migration in human A549 cells assessed as wound recovery at 0.2 uM measured after 24 hrs by inverted microscopic analysis (reference value: 28.2 %); type: functional; design: scale not given: the % may be the effect or the level left

Structure (SMILES): CNC(=O)c1ccccc1Nc1nc(Nc2ccc(N3CCN(CCCCCC(=O)NCCNc4cccc5c4C(=O)N(C4CCC(=O)NC4=O)C5=O)CC3)cc2OC)ncc1Cl (configuration not stated)
IC50 [1]: 0.31 µM

Structure (SMILES): CNC(=O)c1ccccc1Nc1nc(Nc2ccc(N3CCN(CCCCCCCCCC(=O)Nc4cccc5c4C(=O)N(C4CCC(=O)NC4=O)C5=O)CC3)cc2OC)ncc1Cl (configuration not stated)
IC50 [1]: 3.58 µM

Structure (SMILES): CNC(=O)c1ccccc1Nc1nc(Nc2ccc(N3CCN(CCCCC(=O)NCCNc4cccc5c4C(=O)N(C4CCC(=O)NC4=O)C5=O)CC3)cc2OC)ncc1Cl (configuration not stated)
IC50 [1]: 4.01 µM

Structure (SMILES): CNC(=O)c1ccccc1Nc1nc(Nc2ccc(N3CCN(CCCCCC(=O)Nc4cccc5c4C(=O)N(C4CCC(=O)NC4=O)C5=O)CC3)cc2OC)ncc1Cl (configuration not stated)
IC50 [1]: 0.26 µM

Structure (SMILES): CNC(=O)c1ccccc1Nc1nc(Nc2ccc(N3CCN(CCCCCCCCNC(=O)CNc4cccc5c4C(=O)N(C4CCC(=O)NC4=O)C5=O)CC3)cc2OC)ncc1Cl (configuration not stated)
IC50 [1]: 2.25 µM

Structure (SMILES): CNC(=O)c1ccccc1Nc1nc(Nc2ccc(N3CCN(CCCCC(=O)Nc4cccc5c4C(=O)N(C4CCC(=O)NC4=O)C5=O)CC3)cc2OC)ncc1Cl (configuration not stated)
IC50 [1]: 0.14 µM | Activity [3]: 42.4% | Papp B→A at 2 h, 2 µM [4]: 4.7 ×10⁻⁶ cm/s | Activity [5]: 11.1% | Activity [6]: 3.6% | Activity [7]: 33.3% | Activity [2]: Dde | remaining at 0.5 h, 2 µM [8]: 96.6% | half-life at 2 µM [9]: > 4.82 h | remaining at 1 h, 2 µM [10]: 98.3% | Activity [11]: 21.7% | Papp A→B at 2 h, 2 µM [12]: 1.4 ×10⁻⁶ cm/s | remaining at 10 min, 2 µM [13]: 112% | remaining at 2 h, 2 µM [14]: 86.2% | Activity [15]: 13.7%

Structure (SMILES): CNC(=O)c1ccccc1Nc1nc(Nc2ccc(N3CCN(CCCCCCCCC(=O)Nc4cccc5c4C(=O)N(C4CCC(=O)NC4=O)C5=O)CC3)cc2OC)ncc1Cl (configuration not stated)
IC50 [1]: 1.35 µM

Further compounds by falling IC50 [1], results first:

IC50 [1]: 3.42 µM
Structure (SMILES): CNC(=O)c1ccccc1Nc1nc(Nc2ccc(N3CCN(CCCCC(=O)Nc4ccc5c(c4)C(=O)N(C4CCC(=O)NC4=O)C5=O)CC3)cc2OC)ncc1Cl (configuration not stated)

IC50 [1]: 1.31 µM
Structure (SMILES): CNC(=O)c1ccccc1Nc1nc(Nc2ccc(N3CCOCC3)cc2OC)ncc1Cl
Activity [2]: Dde

IC50 [1]: 0.79 µM
Structure (SMILES): CNC(=O)c1ccccc1Nc1nc(Nc2ccc(N3CCN(CCCCCCC(=O)Nc4cccc5c4C(=O)N(C4CCC(=O)NC4=O)C5=O)CC3)cc2OC)ncc1Cl (configuration not stated)

IC50 [1]: 0.33 µM
Structure (SMILES): CNC(=O)c1ccccc1Nc1nc(Nc2ccc(N3CCN(CCCCCCCC(=O)NCCNc4cccc5c4C(=O)N(C4CCC(=O)NC4=O)C5=O)CC3)cc2OC)ncc1Cl (configuration not stated)

IC50 [1]: 0.27 µM
Structure (SMILES): CNC(=O)c1ccccc1Nc1nc(Nc2ccc(N3CCN(CCCCC(=O)Nc4cccc5c4CN(C4CCC(=O)NC4=O)C5=O)CC3)cc2OC)ncc1Cl (configuration not stated)
